{"source": "paper PMC10204490", "about": "“Incubation Time Influences Organic Anion Transporter 1 Kinetics and Renal Clearance Predictions” (Journal of Xenobiotics, 2023)", "key": {"OAT1 [1]": {"biological_target": "T1, OAT1 (Homo sapiens, UniProt Q4U2R8)", "T1 sequence (Q4U2R8 1-563)": "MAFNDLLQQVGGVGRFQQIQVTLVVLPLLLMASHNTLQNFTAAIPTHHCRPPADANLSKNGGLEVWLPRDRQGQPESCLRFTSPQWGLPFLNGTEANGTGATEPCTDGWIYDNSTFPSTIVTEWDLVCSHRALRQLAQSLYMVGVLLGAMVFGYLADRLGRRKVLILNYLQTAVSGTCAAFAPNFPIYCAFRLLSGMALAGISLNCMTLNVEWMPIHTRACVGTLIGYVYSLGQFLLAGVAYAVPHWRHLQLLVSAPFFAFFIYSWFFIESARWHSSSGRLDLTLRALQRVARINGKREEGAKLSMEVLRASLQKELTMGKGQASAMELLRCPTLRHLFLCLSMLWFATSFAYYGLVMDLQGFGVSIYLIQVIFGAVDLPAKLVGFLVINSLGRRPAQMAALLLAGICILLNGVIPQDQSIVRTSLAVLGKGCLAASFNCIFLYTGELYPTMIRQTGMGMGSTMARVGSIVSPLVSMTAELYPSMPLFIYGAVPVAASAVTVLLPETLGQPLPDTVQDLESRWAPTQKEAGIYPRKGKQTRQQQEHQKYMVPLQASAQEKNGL", "assay": "Inhibition of [3H]PAH uptake into CHO-OAT1 cells (IC50 determination)", "conditions": "IC50 for inhibition of [3H]PAH uptake, [3H]PAH 20 nM, mean ± SEM, n=4", "experimental": "All cells were grown to confluence in 24-well flat bottom plates for transport experiments.\nTransport experiments involved aspirating the media, rinsing the cells quickly once with WB (0.4 mL), and then adding the transport solution (0.4 mL) to the wells for an amount of time as indicated in the figure legends. Uptake was stopped by aspirating the transport buffer and rinsing the wells three times with ice-cold WB (0.4 mL). The cells were lysed in 0.5 N NaOH/1% sodium dodecyl sulfate (0.4 mL) for 30 min on an orbital shaker and the lysates neutralized with 1 N HCl (0.2 mL). […] Several wells not used for transport were used for determining the number of cells per well with a hemocytometer.\nAs above, transport inhibition experiments involved aspirating the media, rinsing the cells quickly once with WB (0.4 mL), and then adding the transport solution (0.4 mL) to the wells for an amount of time as indicated in the figure legends.\n[I] is the concentration of inhibitor in the transport solution. […] Japp is the apparent maximal transport rate, and C has the same meaning as noted above."}, "OAT1 [2]": {"biological_target": "T1, OAT1", "assay": "Telmisartan pre-incubation and washout recovery of [3H]PAH uptake in CHO-OAT1 cells"}, "OAT1 [3]": {"test_system": "OAT1", "conditions": "cited from earlier work"}, "[4]": {"set-up": "method as in earlier work", "conditions": "cited from earlier work"}, "[5]": {"conditions": "cited from earlier work"}, "[6]": {"set-up": "method as in earlier work", "conditions": "measured; cited from earlier work"}}, "data": [{"smiles": "CCCc1nc2c(C)cc(-c3nc4ccccc4n3C)cc2n1Cc1ccc(-c2ccccc2C(=O)O)cc1", "note": "[Telmisartan, telmisartan]", "values": [{"measurement": "IC50", "setting": "OAT1 [1]; 15 sec incubation", "result": "0.4 ± 0.07", "unit": "µM"}, {"measurement": "IC50", "setting": "OAT1 [1]; 10 min incubation", "result": "0.06 ± 0.02", "unit": "µM"}, {"measurement": "Reversibility of OAT1 inhibition after washout", "setting": "OAT1 [2]; 30 min pre-treatment with telmisartan 0.5 µM, washout in WB with 10% FBS, single experiment", "result": "reversible, albeit slowly"}, {"measurement": "Effect of pre-incubation time on OAT1 transport activity", "setting": "OAT1 [2]; telmisartan 10, 50, 100 or 200 nM, pre-incubation 1, 5, 10 or 30 min, [3H]PAH uptake 15 s", "result": "decreased with increasing pre-incubation times"}, {"measurement": "Inhibition mechanism at OAT1", "setting": "OAT1 [3]", "result": "non-competitive"}]}, {"smiles": "COc1ccc2[nH]c([S+]([O-])Cc3ncc(C)c(OC)c3C)nc2c1", "note": "(stereo not shown) [Omeprazole, omeprazole]", "values": [{"measurement": "IC50", "setting": "OAT1 [1]; 15 sec incubation", "result": "9.7 ± 0.8", "unit": "µM"}, {"measurement": "IC50", "setting": "OAT1 [1]; 10 min incubation", "result": "9.2 ± 0.8", "unit": "µM"}, {"measurement": "Inhibition mechanism at OAT1", "setting": "OAT1 [3]", "result": "mixed-type"}]}, {"smiles": "Nc1ccc(C(=O)NCC(=O)O)cc1", "note": "[PAH, Para-aminohippurate]", "values": [{"measurement": "LogP", "setting": "[4]", "result": -2.2}, {"measurement": "pKa", "setting": "[4]", "result": 3.83}, {"measurement": "Clinically-observed plasma clearance (CLi.v.)", "setting": "[5]; 10 mg ∙ kg-1 intravenous dose", "result": 40.6, "unit": "L/h"}, {"measurement": "Observed Vss", "setting": "[5]", "result": 0.23, "unit": "L/kg"}, {"measurement": "Percentage of the dose excreted into the urine as acetyl-PAH", "setting": "[5]", "result": "~ 10%"}, {"measurement": "Reduction in plasma clearance of PAH by co-administered probenecid", "setting": "[5]; human subjects, probenecid 1 g oral dose", "result": 1.8, "unit": "fold"}, {"measurement": "Fraction unbound in plasma (fup)", "setting": "[6]", "result": 0.83}]}, {"smiles": "COc1ccc2c(c1)c(CC(=O)O)c(C)n2C(=O)c1ccc(Cl)cc1", "note": "[Indomethacin, indomethacin]", "values": [{"measurement": "Inhibition mechanism at OAT1", "setting": "OAT1 [3]", "result": "competitive"}]}]}
